Laboratory results as given in publication PMC8228121, “Super-Cationic Peptide Dendrimers—Synthesis and Evaluation as Antimicrobial Agents” (Antibiotics, 2021).
Values after ≈ are worked out from the molar mass of the structure shown. Bridge positions count the residues as written; N and C are the ends. Square brackets hold non-standard residues; d marks the D form. Side chains are listed from the residue outwards. Peptide text beside a SMILES is read from it. I, II: the chains in the order shown. Orn = NCCC[C@H](N)C(=O)O

Assays:
MTT cytotoxicity assay = format: cell-based, human; conditions: human, HepG2 cells, HepG2, 24 h exposure
Procedure: (§4) Cell viability was evaluated using the colorimetric MTT assay [21]. Human hepatocarcinoma (HepG2) cells and human embryonic kidney 293 (HEK-293) cells used in the drug toxicity assays were obtained from Cellonex (Johannesburg, South Africa). Viable HepG2 and HEK293 cells (20,000 cells/well) were seeded into a 96-well microtiter plate (200 µL) and allowed to attach overnight. The cells were exposed to varying concentrations of the peptides for 24 h. After removal of the treatment medium, 20 µL of MTT salt solution (5 mg/mL in 0.1M phosphate buffer saline (PBS)) and 100 µL of complete cell culture medium (CCM) were added to each well. After a 4 h (37 °C) incubation, the MTT salt solution was discarded and 100 μL of dimethyl sulphoxide (DMSO) were added to each well (1 h, 37 °C). The optical density of the solubilized formazan product was measured at 570 nm (reference λ of 690 nm) using a Bio-tek μQuant spectrophotometer (Winooski, VT, USA). […] GraphPad Prism (V5) (La Jolla, CA, USA) was used to obtain the half maximum inhibitory concentration (IC50) for each compound.

[1] = test system: MRSA (methicillin-resistant S. aureus) isolates; assay: microbe, parasite or virus in culture; format: cell-based; conditions: methicillin-resistant ) isolates
Procedure: (§1) Clinical isolates of CRE, MRSA and VRE were obtained from Lancet Laboratories, Durban, South Africa, with approval BE394/15 from the Biomedical Research Ethical Committee of the University of KwaZulu-Natal. Five reference strains of bacteria, namely Escherichia coli ATCC 25922, Pseudomonas aeruginosa ATCC 27853, Enterococcus faecium ATCC 35667, Staphylococcus aureus ATCC 29213 and Bacillus subtilis ATCC 6051 were supplied by the American Type Culture Collection (ATCC).
(§2) MIC values were determined by the broth microdilution method and the significance of the values obtained was interpreted following the guidelines of the Clinical and Laboratory Standards for Antimicrobial Susceptibility Testing.. The effect of human serum on the antimicrobial effect of the molecules tested was determined in a similar way to the MIC method used above in a solution of 50% human serum plus Mueller–Hinton broth.

B. subtilis ATCC 6051 = assay: microbe, parasite or virus in culture; format: cell-based, Bacillus subtilis; conditions: ATCC 6051
Procedure: as §1, §2

P. aeruginosa [2] = assay: Time–kill curves; format: cell-based
Procedure: Killing curve assays were performed with a starting inoculum of 6 × 10^6 CFU/mL. […] Antimicrobials were added to 5 mL of bacteria in the exponential phase of growth and incubated at 37 °C with shaking. Samples were obtained aseptically at 0, 1, 2, 4, 6 and 24 h, diluted in Ringer 1/4 and plated on TSA for colony counting. The response of microbial strains to a single antimicrobial was determined by lowering logarithms of viable bacteria. In accordance with Lora-Tamayo et al., an antimicrobial was considered active when a reduction of ≥1 log10 relative to the initial inoculum was observed.

in vitro = conditions: human
Procedure: as §4

E. coli ATCC 25822 = assay: microbe, parasite or virus in culture; format: cell-based, Escherichia coli; conditions: ATCC 25822
Procedure: as §1, §2

S. aureus = assay: Effect on bacterial growth curves; format: cell-based; conditions: at MIC, ½ MIC and ¼ MIC
Procedure: (§3) The study of the growth dynamic of the S. aureus, E. coli and P.aeruginosa strains against CAMPDs were assayed with a starting inoculum of 10^6–10^8 CFU/mL in a 10 mL specific falcon tube. The experiment was performed by a real-time reverse-spin bioreactor RTS-1 (Biosan SIA, Riga, Latvia) that applies non-invasive, mechanically driven rotation; thus, the cell suspension is mixed efficiently, mixing and oxygening the culture at 37 °C. Cell growth kinetics were recorded non-invasively in real time from data obtained from a near-infrared optical system, every 15 min.

P. aeruginosa [3] = assay: Effect on bacterial growth curves; format: cell-based
Procedure: as §3

E. coli = assay: Effect on bacterial growth curves; format: cell-based; conditions: irrespective of concentration (MIC, ½ MIC and ¼ MIC)
Procedure: as §3

S. aureus ATCC 29213 = assay: microbe, parasite or virus in culture; format: cell-based, Staphylococcus aureus; conditions: ATCC 29213
Procedure: as §1, §2

P. aeruginosa ATCC 27853 = assay: microbe, parasite or virus in culture; format: cell-based, Pseudomonas aeruginosa; conditions: ATCC 27853
Procedure: as §1, §2

E. faecium ATCC 35667 = assay: microbe, parasite or virus in culture; format: cell-based, Enterococcus faecium; conditions: ATCC 35667
Procedure: as §1, §2

Row | SMILES | IC50 at 24 h (MTT cytotoxicity assay) | MIC [1] | MBC (B. subtilis ATCC 6051) | MIC (B. subtilis ATCC 6051) | time–kill: effect on bacterial population (P. aeruginosa [2]; at MIC) | time–kill: effect on bacterial population (P. aeruginosa [2]; at ¼ MIC) | time–kill: effect on bacterial population (P. aeruginosa [2]; at ½ MIC) | IC50 at 24 h (in vitro) | MBC (E. coli ATCC 25822) | MIC (E. coli ATCC 25822) | MBC (S. aureus ATCC 29213) | MIC (S. aureus ATCC 29213) | MBC (P. aeruginosa ATCC 27853) | MIC (P. aeruginosa ATCC 27853) | MBC (E. faecium ATCC 35667) | MIC (E. faecium ATCC 35667) | other results
1 | CC(C)C[C@H](NC(=O)[C@H](CC(C)C)NC(=O)[C@H](CCCN)NC(=O)[C@H](CC(C)C)NC(=O)[C@H](CC(C)C)NC(=O)[C@H](CCCCNC(=O)[C@H](CCCN)NC(=O)[C@H](CC(C)C)NC(=O)[C@H](CCCN)NC(=O)[C@H](CCCCNC(=O)[C@H](CCCN)NC(=O)[C@H](CC(C)C)NC(=O)[C@@H](N)CCCN)NC(=O)[C@H](CCCN)NC(=O)[C@H](CC(C)C)NC(=O)[C@@H](N)CCCN)NC(=O)[C@H](CCCN)NC(=O)[C@H](CC(C)C)NC(=O)[C@H](CCCN)NC(=O)[C@H](CCCCNC(=O)[C@H](CCCN)NC(=O)[C@H](CC(C)C)NC(=O)[C@@H](N)CCCN)NC(=O)[C@H](CCCN)NC(=O)[C@H](CC(C)C)NC(=O)[C@@H](N)CCCN)C(N)=O [G2OLO-L2OL2, (OLO)4(KOLO)2KLLOLL-NH2] (I: H-[Orn]L[Orn]K([Orn-Leu-Orn])[Orn]L[Orn]KLL[Orn]LL-NH2 / II: H-[Orn]L[Orn]K([Orn-Leu-Orn])[Orn]L[Orn]; amide I:8-II:C) | 141 µg/mL (≈ 46.8 µM) | 64 µg/mL (≈ 21.2 µM) | 32 µg/mL (≈ 10.6 µM) | 32 µg/mL (≈ 10.6 µM) | killed all bacteria within the first hour of exposure and regrowth was observed after the second hour | the bacterial population was not totally eliminated | the bacterial population was not totally eliminated | 199 µg/mL (≈ 65.9 µM) | 32 µg/mL (≈ 10.6 µM) | 32 µg/mL (≈ 10.6 µM) | 32 µg/mL (≈ 10.6 µM) | 32 µg/mL (≈ 10.6 µM) | 32 µg/mL (≈ 10.6 µM) | 32 µg/mL (≈ 10.6 µM) | 8 µg/mL (≈ 2.65 µM) | 8 µg/mL (≈ 2.65 µM) | effect on growth curve (S. aureus): negligible; effect on growth curve (P. aeruginosa [3]; at the MIC): abolished growth; delay in growth (P. aeruginosa [3]; at ¼ MIC): ~2 h; delay in growth (P. aeruginosa [3]; at ½ MIC): 10 h; effect on growth curve (E. coli): abolished bacterial growth
2 | CC(C)C[C@H](NC(=O)[C@H](CC(C)C)NC(=O)[C@H](CCCCN)NC(=O)[C@H](CC(C)C)NC(=O)[C@H](CC(C)C)NC(=O)[C@H](CCCCNC(=O)[C@H](CCCCN)NC(=O)[C@H](CC(C)C)NC(=O)[C@H](CCCCN)NC(=O)[C@H](CCCCNC(=O)[C@H](CCCCN)NC(=O)[C@H](CC(C)C)NC(=O)[C@@H](N)CCCCN)NC(=O)[C@H](CCCCN)NC(=O)[C@H](CC(C)C)NC(=O)[C@@H](N)CCCCN)NC(=O)[C@H](CCCCN)NC(=O)[C@H](CC(C)C)NC(=O)[C@H](CCCCN)NC(=O)[C@H](CCCCNC(=O)[C@H](CCCCN)NC(=O)[C@H](CC(C)C)NC(=O)[C@@H](N)CCCCN)NC(=O)[C@H](CCCCN)NC(=O)[C@H](CC(C)C)NC(=O)[C@@H](N)CCCCN)C(N)=O [G2KLK-L2KL2, (KLK)4(KKLK)2KLLKLL-NH2] (I: H-KLKK([Lys-Leu-Lys])KLKKLLKLL-NH2 / II: H-KLKK([Lys-Leu-Lys])KLK; amide I:8-II:C) | 124 µg/mL (≈ 38.7 µM) | 64 µg/mL (≈ 20 µM) | 8 µg/mL (≈ 2.5 µM) | 8 µg/mL (≈ 2.5 µM) | – | – | – | 116 µg/mL (≈ 36.2 µM) | 32 µg/mL (≈ 10 µM) | 16 µg/mL (≈ 5 µM) | 32 µg/mL (≈ 10 µM) | 32 µg/mL (≈ 10 µM) | 16 µg/mL (≈ 5 µM) | 8 to 16 µg/mL | 32 µg/mL (≈ 10 µM) | 32 µg/mL (≈ 10 µM) | effect on growth curve (P. aeruginosa [3]; at ½ MIC or ¼ MIC): less capacity to delay growth
3 | CC(C)C[C@H](NC(=O)[C@H](CC(C)C)NC(=O)[C@H](CCCNC(=N)N)NC(=O)[C@H](CC(C)C)NC(=O)[C@H](CC(C)C)NC(=O)[C@H](CCCCNC(=O)[C@H](CCCNC(=N)N)NC(=O)[C@H](CC(C)C)NC(=O)[C@H](CCCNC(=N)N)NC(=O)[C@H](CCCCNC(=O)[C@H](CCCNC(=N)N)NC(=O)[C@H](CC(C)C)NC(=O)[C@@H](N)CCCNC(=N)N)NC(=O)[C@H](CCCNC(=N)N)NC(=O)[C@H](CC(C)C)NC(=O)[C@@H](N)CCCNC(=N)N)NC(=O)[C@H](CCCNC(=N)N)NC(=O)[C@H](CC(C)C)NC(=O)[C@H](CCCNC(=N)N)NC(=O)[C@H](CCCCNC(=O)[C@H](CCCNC(=N)N)NC(=O)[C@H](CC(C)C)NC(=O)[C@@H](N)CCCNC(=N)N)NC(=O)[C@H](CCCNC(=N)N)NC(=O)[C@H](CC(C)C)NC(=O)[C@@H](N)CCCNC(=N)N)C(N)=O [G2RLR-L2RL2, (RLR)4(KRLR)2KLLRLL-NH2] (I: H-RLRK([Arg-Leu-Arg])RLRKLLRLL-NH2 / II: H-RLRK([Arg-Leu-Arg])RLR; amide I:8-II:C) | 102 µg/mL (≈ 28.7 µM) | – | 16 µg/mL (≈ 4.49 µM) | 16 µg/mL (≈ 4.49 µM) | reduced the bacterial population to almost zero and no regrowth was appreciated after 24 h | the bacterial population remained partially inhibited at the beginning of the exposure | reduced the bacterial population to almost zero and no regrowth was appreciated after 24 h | 67.4 µg/mL (≈ 18.9 µM) | 64 µg/mL (≈ 18 µM) | 64 µg/mL (≈ 18 µM) | 32 µg/mL (≈ 8.98 µM) | 32 µg/mL (≈ 8.98 µM) | 64 µg/mL (≈ 18 µM) | 64 µg/mL (≈ 18 µM) | 16 µg/mL (≈ 4.49 µM) | 16 µg/mL (≈ 4.49 µM) | –
